Results from the supplement of paper PMC11208160.

Experiment: recombinant barcode read abundance after kanamycin selection (control-corrected) (log10(CPM+1)); higher = more efficient recombination; sequences stand for … in AGTGCAGAGAAAATCGGCCAGTTTTCTCTGCCTGCAGTCCGCATGCCGT…ATTTATGCAGCGGACTGCCTTTCTCCCAAAGTGATAAACCGGACAGTATCATGGACCGGTTTTCCCGGTAATCCGTATTTGCAAGGTTGGTTTCACT; site = the 11-nt target
Outline: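 Two replicates per condition were plated: chloramphenicol/ampicillin LB agar for the control, and chloramphenicol/ampicillin/kanamycin with 0.1 mM IPTG for selection. The pooled E. coli screen behind them paired targets with IS621 bridge RNA target-binding loops. Recombination efficiency is expressed from averaged, control-corrected barcode counts per million at recombinant junctions, as log10(CPM+1).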

“TCGCGACCTTGGGTTCTAACCTGTTGCCGGC [TCGCGACCTCG_LTGcore_CT_RTGcore_GC] (site TCGCGACCTCG) (LTG core: CT, RTG core: GC)” and “TCGCGACCTTGGGTTCTAACCTGTTGCCGTG [TCGCGACCTCG_LTGcore_CT_RTGcore_CA] (site TCGCGACCTCG) (LTG core: CT, RTG core: CA)” are within 0.2 log units of each other in “recombinant barcode read abundance (log10)” value: 0.0211 for the first, 0.0363 for the second.

“TCGCGACGGTGGGTTCTAACCTGTTGCCGAG [TCGCGACCTCG_LTGcore_GG_RTGcore_CT] (site TCGCGACCTCG) (LTG core: GG, RTG core: CT)” and “TCGCGACTGTGGGTTCTAACCTGTTGCCGAG [TCGCGACCTCG_LTGcore_TG_RTGcore_CT] (site TCGCGACCTCG) (LTG core: TG, RTG core: CT)” are within 0.2 log units of each other in “recombinant barcode read abundance (log10)” value: 0.167 for the first, 0.302 for the second.

“TCGCGACTTTGGGTTCTAACCTGTTGCCGAG [TCGCGACCTCG_LTGcore_TT_RTGcore_CT] (site TCGCGACCTCG) (LTG core: TT, RTG core: CT)” and “TCTACCCAGTGGGTTCTAACCTGTTGCTGCT [TCTACCCCTCA_LTGcore_AG_RTGcore_AG] (site TCTACCCCTCA) (LTG core: AG, RTG core: AG)” are within 0.2 log units of each other in “recombinant barcode read abundance (log10)” value: 0.282 for the first, 0.24 for the second.

First: TCTACCCCCTGGGTTCTAACCTGTTGCTGAG [TCTACCCCTCA_LTGcore_CC_RTGcore_CT] (site TCTACCCCTCA) (LTG core: CC, RTG core: CT)
Second: TCTACCCCTTGGGTTCTAACCTGTTGCTGAG [TCTACCCCTCA_LTGcore_CT_RTGcore_CT] (site TCTACCCCTCA) (LTG core: CT, RTG core: CT)
The “recombinant barcode read abundance (log10)” value of the first is lower: 0.0931 for the first, 0.783 for the second.

“TCTACCCCTTGGGTTCTAACCTGTTGCTGAT [TCTACCCCTCA_LTGcore_CT_RTGcore_AT] (site TCTACCCCTCA) (LTG core: CT, RTG core: AT)” and “TCTACCCCTTGGGTTCTAACCTGTTGCTGGA [TCTACCCCTCA_LTGcore_CT_RTGcore_TC] (site TCTACCCCTCA) (LTG core: CT, RTG core: TC)” are within 0.2 log units of each other in “recombinant barcode read abundance (log10)” value: 0.131 for the first, 0.0313 for the second.

“TCTACCCCTTGGGTTCTAACCTGTTGCTGTA [TCTACCCCTCA_LTGcore_CT_RTGcore_TA] (site TCTACCCCTCA) (LTG core: CT, RTG core: TA)” and “TCTACCCGCTGGGTTCTAACCTGTTGCTGGC [TCTACCCCTCA_LTGcore_GC_RTGcore_GC] (site TCTACCCCTCA) (LTG core: GC, RTG core: GC)” are the same in “recombinant barcode read abundance (log10)” value: 0.124 for the first, 0.124 for the second.

“TCTACCCGTTGGGTTCTAACCTGTTGCTGAC [TCTACCCCTCA_LTGcore_GT_RTGcore_GT] (site TCTACCCCTCA) (LTG core: GT, RTG core: GT)” and “TGATACCAATGGGTTCTAACCTGTTGCGTTT [TGATACCCTAC_LTGcore_AA_RTGcore_AA] (site TGATACCCTAC) (LTG core: AA, RTG core: AA)” are within 0.2 log units of each other in “recombinant barcode read abundance (log10)” value: 0.0436 for the first, 0.0446 for the second.

Going from “TGATACCAGTGGGTTCTAACCTGTTGCGTCT [TGATACCCTAC_LTGcore_AG_RTGcore_AG] (site TGATACCCTAC) (LTG core: AG, RTG core: AG)” to “TGATACCCATGGGTTCTAACCTGTTGCGTTG [TGATACCCTAC_LTGcore_CA_RTGcore_CA] (site TGATACCCTAC) (LTG core: CA, RTG core: CA)”, the “recombinant barcode read abundance (log10)” value falls from 0.256 to 0.0326.

Compared with “TGATACCCTTGGGTTCTAACCTGTTGCGTAC [TGATACCCTAC_LTGcore_CT_RTGcore_GT] (site TGATACCCTAC) (LTG core: CT, RTG core: GT)”, “TGATACCCTTGGGTTCTAACCTGTTGCGTAG [TGATACCCTAC_LTGcore_CT_RTGcore_CT] (site TGATACCCTAC) (LTG core: CT, RTG core: CT)” is higher in “recombinant barcode read abundance (log10)” value: 0.08 for the first, 2.73 for the second.

In the case of “TGATACCCTTGGGTTCTAACCTGTTGCGTCA [TGATACCCTAC_LTGcore_CT_RTGcore_TG] (site TGATACCCTAC) (LTG core: CT, RTG core: TG)”, the “recombinant barcode read abundance (log10)” value is reported as 0.796.
